Active and inactive are the calls of the source. No cut-off for these calls is given here.
How the values were obtained:
Format in all cases: functional, organism-based
Staphylococcus aureus = assay: Antimicrobial activity against Staphylococcus aureus
Candida albicans = assay: Antimicrobial activity against Candida albicans
Escherichia coli = assay: Antimicrobial activity against Escherichia coli

| SMILES | Activity (Staphylococcus aureus) | Activity (Candida albicans) | Activity (Escherichia coli) |
| --- | --- | --- | --- |
| O=c1c(O)c(-c2ccc(O)c(O)c2)oc2cc(O)cc(O)c12 | Active | inactive | Active |
| O=c1c(O)c(-c2ccc(O)cc2)oc2cc(O)cc(O)c12 | Active | Active | Active |

— ChEMBL document CHEMBL1151611, “Antimicrobial principles from in vitro tissue culture of Peganum harmala” (J Nat Prod, 1984)
